Experimental data as given in ChEMBL document CHEMBL1141406, “Design, synthesis, and evaluation of naphthalene-sulfonamide antagonists of human CCR8” (J Med Chem, 2007).

What was measured:
[1] = biological target: T1, C-C chemokine receptor type 8 (Homo sapiens, UniProt P51685); experiment: Binding affinity to human CCR8 expressed in L1.2 cells by FMAT assay; format: cell-based
[2] = Stability in mouse plasma; format: ADME, cell-free
[3] = Apparent permeability from apical to basolateral side of Caco-2 cells; format: ADME, cell-based; conditions: human
[4] = Ratio of apparent permeability from basolateral to apical over apical to basolateral in Caco-2 cells; conditions: human, read-out: Selectivity ratio
[5] = Apparent permeability from basolateral to apical side of Caco-2 cells; format: ADME, cell-based; conditions: human
[6] = Intrinsic clearance in liver microsomes; conditions: human
[7] = biological target: T1, C-C chemokine receptor type 8; experiment: Antagonist activity against human CCR8 expressed in CHO/Galpha16 cells assessed as inhibition of CCL1-induced increase of intracellular calcium by FLIPR assay; format: functional, cell-based

T1 sequence (P51685 whole entry): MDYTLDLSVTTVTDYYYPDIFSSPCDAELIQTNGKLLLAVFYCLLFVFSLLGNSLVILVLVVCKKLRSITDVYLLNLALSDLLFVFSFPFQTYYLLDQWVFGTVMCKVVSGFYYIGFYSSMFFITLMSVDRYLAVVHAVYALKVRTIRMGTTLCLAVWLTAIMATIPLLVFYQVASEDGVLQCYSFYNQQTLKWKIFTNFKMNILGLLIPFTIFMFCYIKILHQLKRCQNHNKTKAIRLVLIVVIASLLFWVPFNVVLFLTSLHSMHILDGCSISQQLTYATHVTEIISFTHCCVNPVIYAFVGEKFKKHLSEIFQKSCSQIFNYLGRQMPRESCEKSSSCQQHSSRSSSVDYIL

Ki [1] [nM]	half-life [2] [min]	Papp A→B [3] [×10⁻⁶ cm/s]	Papp B→A [5] [×10⁻⁶ cm/s]	CLint scaled [6] [mL/min/kg]	IC50 [7] [nM]	Compound	efflux ratio [4]
0.17	30					CCOC(=O)N1CCC(NS(=O)(=O)c2ccc(NC(=O)c3ccccc3)c3ccccc23)CC1	
0.3		25	34	51.7	0.3	CCCC(=O)N1CCC(NS(=O)(=O)c2ccc(NC(=O)c3ccccc3C)c3ccccc23)CC1	1.3
42.6					150	COc1ccc(NS(=O)(=O)c2ccc(NC(=O)c3ccccc3)c3ccccc23)cc1	
2.2		1.9	22	46.7		CCNC(=O)N1CCC(NS(=O)(=O)c2ccc(NC(=O)c3ccccc3C)c3ccccc23)CC1	11
					19.6	Cc1ccccc1C(=O)Nc1ccc(S(=O)(=O)NC2CCN(C(=O)OCCCN3CC(C)OC(C)C3)CC2)c2ccccc12 (configuration not stated)	
					23.6	CCCC(=O)N1CCC(NS(=O)(=O)c2ccc(NC(=O)c3cc4ccccc4s3)c3ccccc23)CC1	
